Blank lines part the entries; values can stand above or below the compound they belong to.
Legend:
Her2 in SKBr3 cells = assay: Her2 assay (microtiter immunoassay of Her2 degradation); assay type: cell-based, human; conditions: for IC50: Her2 degradation, SKBr3 cells, 24 h, average of 3 measurements; for Her2 degradation in SKBr3 cells: result in words
Protocol: Her2 Assay. SKBr3 cells were plated in black, clear-bottom microtiter plates (Corning#3603) at 3,000 cells/well in growth medium (100 μl) and allowed to attach for 24 h at 37° C. and 5% CO2. Growth medium (100 μl) with drug or vehicle (DMSO) was carefully added to the wells, and the plates were placed at 37° C. and 5% CO2. Following 24 h incubation with drugs, wells were washed with ice-cold Tris buffer saline (TBS) containing 0.1% Tween 20 (TBST) (200 μl). A house vacuum source attached to an eight-channel aspirator was used to remove the liquid from the plates. Further, methanol (100 μl at −20° C.) was added to each well, and the plate was placed at 4° C. for 10 min. Methanol was removed by washing with TBST (2×200 μl). After further incubation at RT for 2 h with SUPERBLOCK® R (Pierce 37535) (200 μl), anti-Her-2 (c-erbB-2) antibody (Zymed Laboratories#28-004) (100 μl, 1:200 in SUPERBLOCK® R) was placed in each well. The plate was incubated overnight at 4° C. For control wells, 1:200 dilution of a normal rabbit IgG (Santa Cruz#SC-2027) in SUPERBLOCK® R was used. Each well was washed with TBST (2×200 μl) and incubated at RT for 2 h with an anti-rabbit HRP-linked antibody (Sigma, A-0545) (100 μl, 1:2000 in SuperBlockR). Unreacted antibody was removed by washing with TBST (3×200 μl), and the ECL™ Western blotting reagent (Amersham #RPN2106) (100 μL) was added. The plate was immediately read in an Analyst AD plate reader (Molecular Devices). Each well was scanned for 0.1 s. Readings from wells containing only control IgG and the corresponding HRP-linked secondary antibody were set as background and deducted from all measured values.

[1] = tested on: SKBr3 breast cancer cells; assay: Growth inhibition, sulforhodamine B assay; assay type: cell-based, human; conditions: for IC50: growth inhibition, 72 h, average of 3 measurements; for Inhibition of growth in SKBr3 cells: result in words
Protocol: (§1) Cell Culture. The human breast cancer cell lines SKBr3 and MDA-MB-468 were a gift from Dr. Neal Rosen (MSKCC). Cells were maintained in 1:1 mixture of DME:F12 supplemented with 2 mM glutamine, 50 units/mL penicillin, 50 […] and 10% heat inactivated fetal bovine serum (Gemini Bioproducts#100-10b) and incubated at 37° C., 5% CO2. Growth assays. Growth inhibition studies were performed using the sulforhodamine B assay as previously described.^29 In summary, experimental cultures were plated in microtiter plates (Nunc#167008). One column of wells was left without cells to serve as the blank control. Cells were allowed to attach overnight. The following day, growth medium having either drug or DMSO at twice the desired initial concentration was added to the plate in triplicate and was serially diluted at a 1:1 ratio in the microtiter plate. After 72 h of growth, the cell number in treated versus control wells was estimated after treatment with 50% trichloroacetic acid and staining with 0.4% sulforhodamine B in 1% acetic acid. […] Normal human renal proximal tubular epithelial (RPTEC) cells were purchased pre-seeded in 96-well plates (Clonetics, CC-3190). Upon receipt, cells were placed in a humidified incubator at 37° C., 5% CO2 and allowed to equilibrate for 3 h. Media was removed by suction and replaced with fresh media provided by the manufacturer. Cells were then treated with either drugs or DMSO for 72 h and the IC50 values were determined as described above.

MDA-MB-468 cells = assay: Anti-mitotic assay (Tg-3 microtiter immunoassay); assay type: cell-based, human; conditions: MDA-MB-468 (Rb-defective) cells, 24 h
Protocol: Anti-Mitotic Assay. Black, clear-bottom microtiter 96-well plates (Corning Costar#3603) were used to accommodate experimental cultures. MDA-MB-468 cells were seeded in each well at 8,000 cells per well in growth medium (100 μL), and allowed to attach overnight at 37° C. and 5% CO2. Growth medium (100 μL) with drug or vehicle (DMSO) was gently added to the wells, and the plates were incubated at 37° C. and 5% CO2 for 24 h. Wells were washed with ice-cold TBST (2×200 μL). A house vacuum source attached to an eight-channel aspirator was used to remove the liquid from the 96-well plates. Ice-cold methanol (100 μL) was added to each well, and the plate was placed at 4° C. for 5 min. Methanol was removed by suction and plates were washed with ice-cold TBST (2×200 μL). Plates were further incubated with SuperBlock® blocking buffer (Pierce #37535) (200 μL) for 2 h at RT. The Tg-3 antibody (gift of Dr. Davies, Albert Einstein College of Medicine) diluted 1:200 in SuperBlock® was placed in each well (100 μL) except the control column that was treated with control antibody (Mouse IgM, NeoMarkers, NC-1030-P). After 72 h, wells were washed with ice-cold TBST (2×200 μL). […] Un-reacted antibody was removed by washing the plates with ice-cold TBST (3×200 μL) for 5 min on a shaker. The ECL™ Western Blotting Detection Reagents 1 and 2 in 1:1 mix (100 μL) was placed in each well and the plates were read immediately in an Analyst AD plate reader (Molecular Devices). Luminescence readings were imported into SOFTmax PROR 4.3.1. Anti-mitotic activity was defined as a concentration dependent increase in luminescence readings in compound-treated wells as compared to DMSO only treated wells.

[2] = tested on: Hsp90 complexes found in normal lung tissue; assay: Hsp90 competition assay, lung homogenate; assay type: binding, mouse; conditions: ratio of EC50 values
Protocol: (§4) When using cell lysates instead of recombinant protein, the assay measures binding to average. Hsp90 population found in cell specific complexes.
(§5) Hsp90 Competition Assay.Fluorescence polarization measurements were performed on an ANALYST® AD instrument (Molecular Devices, Sunnyvale, Calif.). […] The assay buffer (HFB) contained 20 mM HEPES (K) pH 7.3, 50 mM KCl, 5 mM MgCl2, 20 mM Na2MoO4, 0.01% NP40. Before each use, 0.1 mg/mL bovine gamma globulin (BGG) (Panvera Corporation, Madison, Wis.) and 2 mM DTT (Fisher Biotech, Fair Lawn, N.J.) were freshly added. […] Cell lysates were prepared rupturing cellular membranes by freezing at −70° C. and dissolving the cellular extract in HFB with added protease and phosphotase inhibitors. Organs were harvested from a healthy mouse and homogenized in HFB. Saturation curves were recorded in which GM-BODIPY (5 nM) was treated with increasing amounts of cellular lysates.

[3] = tested on: Hsp90 complexes found in normal heart tissue; assay: Hsp90 competition assay, heart homogenate; assay type: binding, mouse; conditions: ratio of EC50 values
Protocol: as §4, §5

[4] = tested on: Hsp90 complexes found in normal brain tissue; assay: Hsp90 competition assay, brain homogenate; assay type: binding, mouse; conditions: ratio of EC50 values
Protocol: as §4, §5

Hsp90 from SKBr3 cells = assay: Hsp90 competition assay, SKBr3 cell lysate; assay type: binding, human
Protocol: as §4, §5

[5] = tested on: renal proximal tubular epithelial cells (RPTEC); assay: Cytotoxicity against normal RPTEC cells; assay type: cell-based, human; conditions: ratio of growth IC50 values
Protocol: as §1, with “Cells were then treated with either drugs or DMSO for 72 h and the IC50 values were determined as described above.” left out

[6] = tested on: small cell lung cancer cell lines; assay: Apoptosis and cell death in SCLC cell lines; assay type: cell-based; conditions: each of the SCLC cell lines
[7] = Tumor and plasma concentration in MDA-MB-468 xenografted mice; assay type: in vivo; conditions: 24 hours after intraperitoneal injection
Protocol: (§2) Mice xenografted with MDA-MB-468 human breast cancer tumors were treated by intraperitoneal injection with Compound 5 at a dosage levels of 25, 50, 75, 100 and 150 mg/kg. The concentration of Compound 5 in the tumor 24 hours after administration was determined. […] Compound 5 was further tested for its effects on the pharmacodynamic marker Raf-1 kinase.

Raf-1 kinase = assay: Pharmacodynamic marker in MDA-MB-468 xenograft tumors; assay type: in vivo, mice
Protocol: as §2
Hsp90 stabilizes this kinase and maintains it in ready-to-be-activated conformation. Inhibition of Hsp90 leads to disruption of the complex and further ubiquitinylation and degradation of Raf-1 by the proteasome. Thus, Raf-1 degradation in tumors is a functional read-out of Hsp90 inhibition.

cancer cells = assay: Potency against cancer cells; assay type: cell-based
Protocol: (§3) Growth over 96 h was assessed.

H69AR = assay: Growth over 96 h, resistant SCLC line; assay type: cell-based; conditions: SCLC cell line resistant to adriamycin
Protocol: as §3

SKI-Chen = assay: Growth over 96 h, resistant SCLC line; assay type: cell-based, human; conditions: line from a patient who failed every conventional therapy
Protocol: as §3

[8] = tested on: SCLC cells highly resistant to conventional chemotherapy; assay: Growth inhibition and cell death, FIG. 8; assay type: cell-based; conditions: FIG. 8, growth over 96 h
Protocol: as §3

small cell lung tumors = assay: Pharmacodynamics and anti-cancer activity in a model of small cell lung cancer; assay type: in vivo
[9] = Blood brain barrier penetration
[10] = tested on: MRC5 normal lung fibroblasts; assay: Selectivity SKBr3 versus MRC5 normal cells; assay type: cell-based

IC50 (Her2 in SKBr3 cells): 58000 ± 1400 nM
IC50 (Her2 in SKBr3 cells; listed as Comp 2): 1300 ± 400 nM
IC50 [1]: 48400 ± 2500 nM
IC50 ([1]; listed as Comp 2): 1800 ± 200 nM
Compound: 9-(Pent-4-ynyl)-8-(2,4,5-trichloro-phenylsulfanyl)adenine [Example 2]
Her2 degradation in SKBr3 cells (Her2 in SKBr3 cells): induced Her2 degradation
Inhibition of growth in SKBr3 cells [1]: inhibition of growth
Anti-mitotic (MDA-MB-468 cells): No
Anti-mitotic (MDA-MB-468 cells; listed as Comp 2): exhibited anti-mitotic activity and Yes
Lung/SKBr3 [2]: 2400
Heart/SKBr3 [3]: 590

Compound: C#CCCCn1c(Sc2cc3c(cc2Br)OCO3)nc2c(N)ncnc21 [Example 1, 9-(Pent-4-ynyl)-8-(6-bromo-benzo[1,3]dioxol-5-ylsulfanyl)adenine]
Her2 degradation in SKBr3 cells (Her2 in SKBr3 cells): induced Her2 degradation
Inhibition of growth in SKBr3 cells [1]: inhibition of growth
Anti-mitotic (MDA-MB-468 cells): exhibited anti-mitotic activity and Yes
Brain/SKBr3 [4]: 2000
Selectivity for tumor cells as opposed to normal heart, brain or lung tissue (Hsp90 from SKBr3 cells): very high selectivity
RPTEC/SKBr3 [5]: 20.5
Induction of apoptosis in SCLC cell lines [6]: induced apoptosis

Compound: COc1cc(Sc2nc3c(N)ncnc3n2CCOC(C)C)c(Cl)cc1Cl [Example 3, 9-(2-Isopropoxy-ethyl)-8-(2,4-dichloro-5-methoxy-benzenesulfanyl)adenine]
Anti-mitotic (MDA-MB-468 cells): No

Compound: Nc1ncnc2nc(Sc3cc(Cl)c(Cl)cc3Cl)[nH]c12 [Example 4, 8-(2,4,5-Trichloro-phenylsulfanyl)adenine]
Anti-mitotic (MDA-MB-468 cells): Yes

Concentration in plasma [7]: could not be detected
Compound: CC(C)NCCCn1c(Sc2cc3c(cc2Br)OCO3)nc2c(N)ncnc21 [Example 5, 8-(6-Bromo-benzo[1,3]dioxol-5-ylsulfanyl)-9-(3-isopropylamino-propyl)adenine]
Anti-mitotic (MDA-MB-468 cells): Yes
Raf-1 protein levels in tumor (Raf-1 kinase; all dosage levels): substantial decrease in Raf-1 levels
Expression of PD kinase (Raf-1 kinase; protein unaffected by Hsp90 inhibitors): no change in expression

Compound: C#CCCCn1c(Cc2cc3c(cc2Br)OCO3)nc2c(N)nc(F)nc21 [Example 6, 2-Fluoro-8-(6-bromo-benzo[1,3]dioxol-5-ylmethyl)-9-(pent-4-ynyl)adenine]
Anti-mitotic (MDA-MB-468 cells): Yes

Compound: C#CCCCn1c(Cc2cc3c(cc2Cl)OCO3)nc2c(N)nc(F)nc21 [Example 7, 2-Fluoro-8-(6-chloro-benzo[1,3]dioxol-5-ylmethyl)-9-(pent-4-ynyl)adenine]
Anti-mitotic (MDA-MB-468 cells): Yes

Compound: CC(C)NCCCn1c(Cc2cc3c(cc2I)OCO3)nc2c(N)nc(F)nc21 [Example 8, 2-Fluoro-8-(6-iodo-benzo[1,3]dioxol-5-ylmethyl)-9-(3-isopropylamino-propyl) adenine]
Anti-mitotic (MDA-MB-468 cells): Yes
Potency against cancer cells (cancer cells): low nanomolar potency

Compound: CC(C)NCCCn1c(Sc2cc3c(cc2I)OCO3)nc2c(N)ncnc21 [Example 9, 8-(6-Iodo-benzo[1,3]dioxol-5-ylsulfanyl)-9-(3-isopropylamino-propyl)adenine]
IC50 (Her2 in SKBr3 cells; Homo sapiens, SK-BR-3): 100 ± 10 nM
IC50 ([1]; Homo sapiens, SK-BR-3): 90 ± 2 nM
Anti-mitotic (MDA-MB-468 cells): Yes
Lung/SKBr3 [2]: 48
Heart/SKBr3 [3]: 140
Potency against cancer cells (cancer cells): low nanomolar potency
Activity in H69AR (H69AR): retains its activity
Activity in SKI-Chen (SKI-Chen): retains its activity
Effective concentration lower than PU24FC1 [8]: about 20 times
Tumor growth inhibition (small cell lung tumors; comparable to 17AAG): efficiently inhibited the growth of this tumor
Apoptosis of the tumor (PARP cleavage) (small cell lung tumors; in vivo): induces significant apoptosis of the tumor
Duration of downregulation of Hsp90 client proteins in tumor (small cell lung tumors; in vivo): more than 36 h
Toxicity to the host (small cell lung tumors; in vivo): without toxicity to the host
Raf-1 and Akt in tumor (small cell lung tumors; one administered dose): efficiently degraded or inactivated
Blood brain barrier penetration [9]: ability to cross the blood brain barrier

Compound: C#CCCCn1c(Sc2cc3c(cc2I)OCO3)nc2c(N)ncnc21 [Example 10, 8-(6-Iodo-benzo[1,3]dioxol-5-ylsulfanyl)-9-(pent-4-ynyl)adenine]
Heart/SKBr3 [3]: 370
Selectivity between SKBr3 cells and MRC5 normal lung fibroblasts [10]: Selectivity was also observed

Compound: C#CCCCn1c(Cc2cc3c(cc2I)OCO3)nc2c(N)nc(F)nc21 [Example 11, 2-Fluoro-8-(6-iodo-benzo[1,3]dioxol-5-ylmethyl)-9-(pent-4-ynyl)adenine]
Anti-mitotic (MDA-MB-468 cells): Yes

Compound: C#CCCCn1c(Cc2cc(OC)c(OC)cc2I)nc2c(N)nc(F)nc21 [Example 12, 2-Fluoro-8-(2-iodo-4,5-dimethoxy-benzyl)-9-(pent-4-ynyl)adenine]
Anti-mitotic (MDA-MB-468 cells): No

Compound: C#CCCCn1c(Cc2cc(OC)c(OC)cc2Br)nc2c(N)nc(F)nc21 [Example 13, 2-Fluoro-8-(2-bromo-4,5-dimethoxy-benzyl)-9-(pent-4-ynyl)adenine]
Anti-mitotic (MDA-MB-468 cells): No

Compound: C#CCCCn1c(Cc2cc(OC)c(OC)cc2Cl)nc2c(N)nc(F)nc21 [Example 14, 2-Fluoro-8-(2-chloro-4,5-dimethoxy-benzyl)-9-(pent-4-ynyl)adenine]
Anti-mitotic (MDA-MB-468 cells): No

From US10676476B2, “Small-molecule HSP90 inhibitors” (Sloan-Kettering Institute for Cancer Research, priority 2005, dated 2020)
